Laboratory results reported in patent publication US7541368B2, “Pyrazoles as inhibitors of tumor necrosis factor” (Aventis Pharmaceuticals Inc., priority 2003, dated 2009).

tested on: TNF-alpha release in THP-1 cells; assay: LPS-induced TNF-alpha release in THP-1 cells; format: cell-based; settings: Homo sapiens, THP-1, LPS-stimulated THP-1 cells; read-out: 50% inhibition in the LPS-induced TNF-alpha release in THP-1 cells assay at concentrations within the range
How it was run: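 Undifferentiated THP-1 monocytes (1×10^6 cells/ml, 1% FCS) preincubated 1 h at 37° C with compound (1×10^−9 to 1×10^−6 M, 0.3% DMSO), then stimulated with LPS (20 μg/ml) for 18 h. Supernatant TNF-alpha measured by sandwich ELISA (TMB read-out), interpolated from a log/log standard curve (0.125-16 ng/ml).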

IC50, 10 to 500 nM:
Cc1ccc(-n2nc(C(C)(C)C)cc2NC(=O)Nc2ccc(CC3CCN(C(=O)c4ccc(OC(F)F)cc4)CC3)cc2)cc1 [Compound A306, 1-(5-tert-Butyl-2-p-tolyl-2H-pyrazol-3-yl)-3-{4-[1-(4-difluoromethoxy-benzoyl)-piperidin-4-ylmethyl]-phenyl}-urea]
Cc1ccc(-n2nc(C(C)(C)C)cc2NC(=O)Nc2ccc(CC3CCN(C(=O)c4ccc(N)c(OC(F)(F)F)c4)CC3)cc2)cc1 [Compound A309, 1-{4-[1-(4-Amino-3-trifluoromethoxy-benzoyl)-piperidin-4-ylmethyl]-phenyl}-3-(5-tert-butyl-2-p-tolyl-2H-pyrazol-3-yl)-urea]
Cc1ccc(-n2nc(C(C)(C)C)cc2NC(=O)Nc2ccc(CC3CCN(C(=O)Cc4ccc(F)cc4)CC3)cc2)cc1 [Compound A314, 1-(5-tert-Butyl-2-p-tolyl-2H-pyrazol-3-yl)-3-(4-{1-[2-(4-fluoro-phenyl)-acetyl]-piperidin-4-ylmethyl}-phenyl)-urea]
Cc1ccc(-n2nc(C(C)(C)C)cc2NC(=O)Nc2ccc(CC3CCN(C(=O)c4ccc(CO)cc4)CC3)cc2)cc1 [Compound A315, 1-(5-tert-Butyl-2-p-tolyl-2H-pyrazol-3-yl)-3-{4-[1-(4-hydroxymethyl-benzoyl)-piperidin-4-ylmethyl]-phenyl}-urea]
COc1ccc(CC(=O)N2CCC(Cc3ccc(NC(=O)Nc4cc(C(C)(C)C)nn4-c4ccc(C)cc4)cc3)CC2)cc1 [Compound A319, 1-(5-tert-Butyl-2-p-tolyl-2H-pyrazol-3-yl)-3-(4-{1-[2-(4-methoxy-phenyl)-acetyl]-piperidin-4-ylmethyl}-phenyl)-urea]
Cc1ccc(-n2nc(C(C)(C)C)cc2NC(=O)Nc2ccc(CC3CCN(C(=O)c4cnn(-c5ccccc5)c4C)CC3)cc2)cc1 [Compound A331, 1-(5-tert-Butyl-2-p-tolyl-2H-pyrazol-3-yl)-3-{4-[1-(5-methyl-1-phenyl-1H-pyrazole-4-carbonyl)-piperidin-4-ylmethyl]-phenyl}-urea]
Cc1ccc(-n2nc(C(C)(C)C)cc2NC(=O)Nc2ccc(CC3CCN(C(=O)c4ccc(N)nc4)CC3)cc2)cc1 [Compound A331A, 1-{4-[1-(6-Amino-pyridine-3-carbonyl)-piperidin-4-ylmethyl]-phenyl}-3-(5-tert-butyl-2-p-tolyl-2H-pyrazol-3-yl)-urea]
Cc1ccc(-n2nc(C(C)(C)C)cc2NC(=O)Nc2ccc(CC3CCN(C(=O)c4ccc(Cl)nc4)CC3)cc2)cc1 [Compound A332, 1-(5-tert-Butyl-2-p-tolyl-2H-pyrazol-3-yl)-3-{4-[1-(6-chloro-pyridine-3-carbonyl)-piperidin-4-ylmethyl]-phenyl}-urea]
Cc1ccc(-n2nc(C(C)(C)C)cc2NC(=O)Nc2ccc(CC3CCN(C(=O)c4ccc5ncsc5c4)CC3)cc2)cc1 [Compound A338, 1-{4-[1-(Benzothiazole-6-carbonyl)-piperidin-4-ylmethyl]-phenyl}-3-(5-tert-butyl-2-p-tolyl-2H-pyrazol-3-yl)-urea]
CCCC(=O)N1CCC(Cc2ccc(NC(=O)Nc3cc(C(C)(C)C)nn3-c3ccc(C)cc3)cc2)CC1 [Compound A343, 1-(5-tert-Butyl-2-p-tolyl-2H-pyrazol-3-yl)-3-[4-(1-butyryl-piperidin-4-ylmethyl)-phenyl]-urea]
Cc1ccc(-n2nc(C(C)(C)C)cc2NC(=O)Nc2ccc(CC3CCN(C(=O)CC4CCCC4)CC3)cc2)cc1 [Compound A349, 1-(5-tert-Butyl-2-p-tolyl-2H-pyrazol-3-yl)-3-{4-[1-(2-cyclopentyl-acetyl)-piperidin-4-ylmethyl]-phenyl}-urea]
Cc1ccc(-n2nc(C(C)(C)C)cc2NC(=O)Nc2ccc(CC3CCN(C(=O)CCc4ccccc4)CC3)cc2)cc1 [Compound A354, 1-(5-tert-Butyl-2-p-tolyl-2H-pyrazol-3-yl)-3-{4-[1-(3-phenyl-propionyl)-piperidin-4-ylmethyl]-phenyl}-urea]
